Tested on: peripheral blood mononuclear cells (PBMCs), containing antigen presenting cells (APCs) and T-cells
Experiment: naïve human T-cell proliferation assay (3H-thymidine incorporation, stimulation index)
Assay type: cell-based
Conditions: for predicted ranking of the most immunodominant regions: from numbers of responding naïve donors and crystallographic B-factor analysis; for number of donor samples reactive / percent of donor samples reactive: of 21 naïve donor PBMC samples, positive response SI>2
Text: This approach has proven to be a particularly effective method and is disclosed herein as an embodiment of the invention. The method can be applied to test part of the sequence, for example a sub-set of bryodin 1 peptides such as all or some of those listed in FIG. 1; or the method may be applied to test entire sequence. In the present studies, the method has involved the testing of overlapping bryodin 1 derived peptide sequences in a scheme so as to scan and test the entire bryodin 1 sequence (including peptides representing the N-terminal pro-pepeptide). The synthetic peptides are tested for their ability to evoke a proliferative response in human T-cell cultured in vitro. Where this type of approach is conducted using naïve human T-cells taken from healthy donors, the inventors have established that in the operation of such an assay, a stimulation index equal to or greater than 2.0 is a useful measure of induced proliferation. The stimulation index is conventionally derived by division of the proliferation score (e.g. counts per minute of radioactivity if using ^3H-thymidine incorporation) measured to the test peptide by the score measured in cells not contacted with a test peptide.
The interaction between MHC, peptide and T-cell receptor (TCR) provides the structural basis for the antigen specificity of T-cell recognition. T-cell proliferation assays test the binding of peptides to MHC and the recognition of MHC/peptide complexes by the TCR. In vitro T-cell proliferation assays of the present example, involve the stimulation of peripheral blood mononuclear cells (PBMCs), containing antigen presenting cells (APCs) and T-cells. Stimulation is conducted in vitro using synthetic peptide antigens, and in some experiments whole protein antigen. Stimulated T-cell proliferation is measured using ^3H-thymidine (^3H-Thy) and the presence of incorporated ^3H-Thy assessed using scintillation counting of washed fixed cells.
Buffy coats from human blood stored for less than 12 hours were obtained from the National Blood Service (Addenbrooks Hospital, Cambridge, UK). Ficoll-paque was obtained from Amersham Pharmacia Biotech (Amersham, UK). Serum free AIM V media for the culture of primary human lymphocytes and containing L-glutamine, 50 μg/ml streptomycin, 10 μg/ml gentomycin and 0.1% human serum albumin was from Gibco-BRL (Paisley, UK). Synthetic peptides were obtained from Eurosequence (Groningen, The Netherlands) and Babraham Technix (Cambridge, UK).
Erythrocytes and leukocytes were separated from plasma and platelets by gentle centrifugation of buffy coats. The top phase (containing plasma and platelets) was removed and discarded. Erythrocytes and leukocytes were diluted 1:1 in phosphate buffered saline (PBS) before layering onto 15 ml ficoll-paque (Amersham Pharmacia, Amersham UK). Centrifugation was done according to the manufacturers recommended conditions and PBMCs were harvested from the serum+PBS/ficoll paque interface. PBMCs were mixed with PBS (1:1) and collected by centrifugation. The supernatant was removed and discarded and the PBMC pellet resuspended in 50 ml PBS. Cells were again pelleted by centrifugation and the PBS supernatant discarded. Cells were resuspended using 50 ml AIM V media and at this point counted and viability assessed using trypan blue dye exclusion. Cells were again collected by centrifugation and the supernatant discarded. Cells were resuspended for cryogenic storage at a density of 3×10^7 per ml. The storage medium was 90% (v/v) heat inactivated AB human serum (Sigma, Poole, UK) and 10% (v/v) DMSO (Sigma, Poole, UK). Cells were transferred to a regulated freezing container (Sigma) and placed at −70° C. overnight. When required for use, cells were thawed rapidly in a water bath at 37° C. before transferring to 10 ml pre-warmed AIM V medium.
PBMC were stimulated with protein and peptide antigens in a 96 well flat bottom plate at a density of 2×10^5 PBMC per well. […]

## ATEAAKFVFKDAKKK [R2]
  predicted ranking of the most immunodominant regions: relatively less immunogenic
  number of donor samples reactive: 3 donor samples
  percent of donor samples reactive: 14%

## ATISLENNWSALSKQIQIAST [R5]
  predicted ranking of the most immunodominant regions: most immunogenic
  number of donor samples reactive: 4 donor samples
  percent of donor samples reactive: 19%

## ERLQTAAGKIRENIPLGLPALDSA [R3]
  number of donor samples reactive: 3 donor samples
  percent of donor samples reactive: 14%

## ITTLYYYTASSAASALLVLIQSTAESA [R4]
  number of donor samples reactive: 5 donor samples
  percent of donor samples reactive: 24%

## RYTLLHLTNYADETISVAVDV [R1]
  predicted ranking of the most immunodominant regions: most immunogenic
  number of donor samples reactive: 6 donor samples
  percent of donor samples reactive: over 28%
